Assays:
[1] = Inhibition of NMDA receptor
[2] = target: Glutamate NMDA receptor; GRIN1/GRIN2B (Homo sapiens, UniProt Q05586+Q13224); assay: Antagonist activity at NR1/2B receptor expressed in xenopus laevis at pH 6.9 by two electrode voltage clamp method; format: functional
Sequence of Glutamate NMDA receptor; GRIN1/GRIN2B (Q13224 whole entry, other chains not shown): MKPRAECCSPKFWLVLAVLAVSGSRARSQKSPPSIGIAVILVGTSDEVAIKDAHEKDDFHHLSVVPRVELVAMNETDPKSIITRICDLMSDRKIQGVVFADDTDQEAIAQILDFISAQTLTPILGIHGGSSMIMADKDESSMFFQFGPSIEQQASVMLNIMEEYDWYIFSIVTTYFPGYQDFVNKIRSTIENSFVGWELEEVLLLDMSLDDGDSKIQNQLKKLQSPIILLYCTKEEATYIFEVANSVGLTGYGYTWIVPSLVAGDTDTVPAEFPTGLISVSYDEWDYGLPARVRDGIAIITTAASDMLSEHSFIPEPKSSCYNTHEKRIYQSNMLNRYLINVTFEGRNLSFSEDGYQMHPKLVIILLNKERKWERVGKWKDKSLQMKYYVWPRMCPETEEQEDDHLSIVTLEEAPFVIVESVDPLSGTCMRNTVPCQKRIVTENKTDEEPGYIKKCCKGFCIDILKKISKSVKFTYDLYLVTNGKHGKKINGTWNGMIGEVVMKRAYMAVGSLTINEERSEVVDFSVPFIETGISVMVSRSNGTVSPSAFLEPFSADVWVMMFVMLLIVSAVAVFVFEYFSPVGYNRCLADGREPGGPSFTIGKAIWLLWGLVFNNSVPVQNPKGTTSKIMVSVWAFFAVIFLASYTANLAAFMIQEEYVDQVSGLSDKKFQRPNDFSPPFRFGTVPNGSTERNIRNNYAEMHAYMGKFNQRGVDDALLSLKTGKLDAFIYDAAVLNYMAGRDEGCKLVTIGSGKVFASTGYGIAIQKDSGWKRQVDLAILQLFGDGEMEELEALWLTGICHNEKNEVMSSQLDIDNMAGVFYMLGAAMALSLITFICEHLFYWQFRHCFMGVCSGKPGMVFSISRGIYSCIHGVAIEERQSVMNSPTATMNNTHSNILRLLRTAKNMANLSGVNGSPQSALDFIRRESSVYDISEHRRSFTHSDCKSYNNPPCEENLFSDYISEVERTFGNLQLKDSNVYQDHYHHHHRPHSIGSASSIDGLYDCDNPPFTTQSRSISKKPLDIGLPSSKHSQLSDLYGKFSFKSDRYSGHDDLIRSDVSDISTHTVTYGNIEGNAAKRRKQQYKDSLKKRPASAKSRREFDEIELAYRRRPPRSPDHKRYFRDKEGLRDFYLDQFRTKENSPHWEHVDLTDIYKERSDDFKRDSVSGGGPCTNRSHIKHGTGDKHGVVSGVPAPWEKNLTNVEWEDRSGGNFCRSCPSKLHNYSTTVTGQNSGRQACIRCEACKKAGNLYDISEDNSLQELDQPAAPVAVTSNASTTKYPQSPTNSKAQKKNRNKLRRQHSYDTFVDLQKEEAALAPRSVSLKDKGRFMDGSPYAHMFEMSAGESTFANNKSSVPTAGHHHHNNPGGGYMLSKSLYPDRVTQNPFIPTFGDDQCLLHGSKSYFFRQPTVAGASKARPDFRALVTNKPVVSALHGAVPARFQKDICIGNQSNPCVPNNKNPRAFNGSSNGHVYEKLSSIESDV

SMILES	IC50 [1]	IC50 [2]
NCCCCCNC1(c2ccccc2)CCCCC1	2.1 µM	–
CN1CC[C@@]23CCCC[C@@H]2[C@@H]1Cc1ccc(O)cc13 [DEXTRORPHAN]	–	0.246 µM

From ChEMBL document CHEMBL1157497, “Theoretical studies on the structure and symmetry of the transmembrane region of glutamatergic GluR5 receptor” (J Med Chem, 2008)
